Experimental data taken from US10800755B2, “2,6-disubstituted pyridine derivative” (Sumitomo Dainippon Pharma Co., Ltd., priority 2017, dated 2020).
Read-outs that look alike come from different tables or passages of the source.

Key:
human 5-HT1A receptor [1] = target: T1, human 5-HT1A receptor (Homo sapiens (Human), UniProt P08908); experiment: Test 2: binding activity to human 5-HT1A receptor ([3H] 8-OH-DPAT, CHO cell membrane); details: [3H] 8-OH-DPAT; read-out: 5-HT1A binding affinity (Ki value)
Protocol: (§1) Test 2: Evaluation of Binding Activity to Human 5-HT1A Receptor, Human D4 Receptor, and Human D2 Receptor
(§2) CHO cell membrane fraction in which human 5-HT1A receptor, human D4 receptor, and human D2 receptor were expressed was purchased from PerkinElmer Co., Ltd. In the evaluation test of binding, the test compound dissolved in DMSO, each receptor membrane preparation diluted with buffer solution, and [3H] […] The nonspecific binding to each receptor was evaluated by a competition binding experiment in the presence of 10 μmol/L 8-OH-DPAT, 10 μmol/L dopamine, or 10 μmol/L spiperone, respectively.

human 5-HT1A receptor [2] = target: T1, human 5-HT1A receptor; experiment: Test 1: agonistic activity for human 5-HT1A receptor (aequorin/Gα16 luminescence in CHO-K1 cell); assay type: cell-based; details: for 5-HT1A agonistic activity Emax / Emax: 100% = 10 μmol/L endogenous ligand; for EC50: CHO-K1 cell, aequorin luminescence; for Emax: CHO-K1
Protocol: (§3) Test 1: Evaluation of Agonistic Activity for Human 5-HT1A Receptor and Human D4 Receptor
(§4) Aequorin, Gα16 proteins, and each receptor were transiently expressed in CHO-K1 cell (Chinese hamster ovary), and seeded to 384-well plate. The plate was incubated in a CO2 incubator at 37° C. for 24 hours. Each example compound dissolved in DMSO was added thereto, and the change of luminescence amount was measured with Hamamatsu FDSS/μCELL System (Hamamatsu Photonics).

human D4 receptor [3] = target: T2, human D4 receptor (Homo sapiens (Human), UniProt P21917); experiment: Test 2: binding activity to human D4 receptor ([3H] dopamine, CHO cell membrane)
Protocol: as §1, §2

human D4 receptor [4] = target: T2, human D4 receptor; experiment: Test 1: agonistic activity for human D4 receptor (aequorin/Gα16 luminescence in CHO-K1 cell); assay type: cell-based; details: for D4 agonistic activity Emax / Emax: 100% = 10 μmol/L endogenous ligand; for EC50: CHO-K1 cell, aequorin luminescence; for Emax: CHO-K1
Protocol: as §3, §4

human D2 receptor = human D2 receptor (Homo sapiens (Human), UniProt P14416); experiment: Test 2: binding activity to human D2 receptor ([3H] spiperone, CHO cell membrane); details: [3H] spiperone; read-out: D2 binding affinity (Ki value)
Protocol: as §1, §2

hERG channel [5] = target: T3, hERG channel (Homo sapiens (Human), UniProt Q12809); experiment: Test 5-1: activity for inhibiting hERG channel (whole-cell patch clamp, hERG-CHO cell, Qpatch); assay type: cell-based; details: read-out: hERG inhibition IC50
Protocol: Test 5-1: Evaluation of Activity for Inhibiting hERG Channel
(§5) The activity of the present compound for inhibiting hERG channel was measured by whole-cell patch clamp method with auto patch clamp system, using CHO cell wherein hERG channel involved in human rapidly activating delayed rectifier potassium current (IKr) was forcibly expressed.
(§6) hERG-CHO cell purchased from ChanTest was incubated at 37° C. in a CO2 incubator, and the cell was exfoliated from the flask with trypsin to prepare a cell suspension, shortly before the hERG current measurement.
(§7) Extracellular fluid: 2 mmol/L CaCl2, 1 mmol/L MgCl2, 10 mmol/L HEPES, 4 mmol/L KCl, 145 mmol/L NaCl, 10 mmol/L glucose
Intracellular fluid: 5.4 mmol/L CaCl2, 1.8 mmol/L MgCl2, 10 mmol/L HEPES, 31 mmol/L KOH, 10 mmol/L EGTA, 120 mmol/L KCl, 4 mmol/L Na2-ATP
Test compound solution: The test compound was dissolved in DMSO by adjusting the concentration to 2 mmol/L or 20 mmol/L to prepare each test compound solution. […] (Measurement of Current Value and Data Analysis)
The cell suspension, the extracellular fluid, the intracellular fluid, and the measurement plate were set in an auto patch clamp system, and the hERG current was measured by whole-cell patch clamp method. […] Each pulse interval was 15 seconds. The data analysis was carried out with Qpatch Assay Software (Biolin Scientific). The test was carried out applying increscently 4 concentrations of each test compound, and the average of the peak tail currents that were obtained by the last 3 stimulations in each applied concentration was determined to be the evaluated data. By using the current inhibition rate for the pre-applied current at each concentration of each test compound, IC50 value was calculated by Hill equation with the software.

[6] = Test 3-1: metabolic stability test of human liver microsome (0.1 mg/mL); assay type: in vitro ADME; details: test compound 0.1 μmol/L, 37° C., 30 minutes
Protocol: Test 3-1: Metabolic Stability Test of Human Liver Microsome
The stability of the present compounds for human liver microsome metabolism was evaluated as mentioned below. The used human liver microsome was obtained from Xenontech. Human liver microsome, NADPH, and each test compound were mixed in 25 mmol/L phosphate buffer solution (pH 7.4) to adjust each concentration as shown below, and the mixture was incubated at 37° C. for 30 minutes. • human liver microsome: 0.1 mg/mL • NAPDH: 3.2 mmol/L • test compound: 0.1 μmol/L
The residual ratio of the test compound in each sample after the incubation for 30 minutes was measured with a LC-MS, and the metabolic stability of human liver microsome was calculated about each test compound with the following formula. Metabolic stability of human liver microsome (mL/min/mg protein)=−LN (residual ratio)/“reaction time”/“concentration of human liver microsome”

hERG channel [7] = target: T3, hERG channel; experiment: Test 5-2: activity for inhibiting hERG channel (whole-cell patch clamp, hERG-CHO cell, Qube); assay type: cell-based; details: read-out: hERG inhibition IC50
Protocol: Test 5-2: Evaluation of Activity for Inhibiting hERG Channel
as §5, §6, §7
Intracellular fluid: 10 mmol/L HEPES, 10 mmol/L EGTA, 20 mmol/L KCl, 130 mmol/L KF
Test compound solution: The compound was dissolved in DMSO by adjusting the concentration to 2 mmol/L or 20 mmol/L to prepare each test compound solution. […] (Measurement of Current Value and Data Analysis)
The cell suspension, the extracellular fluid, the intracellular fluid, and the measurement plate were set in an auto patch clamp system, and the hERG current was measured by whole-cell patch clamp method. The voltage-protocol was as follows: the holding potential was adjusted to −80 mV, the depolarizing pulse was added at −50 mV to +20 mV for 5 seconds, the repolarizing pulse was added at −50 mV for 5 seconds, then the potential was returned to the holding potential. Each pulse interval was 15 seconds. The data analysis was carried out with Qube Assay Software (Sophion Scientific). The test was carried out applying increscently 4 concentrations of each test compound, and the average of the peak tail currents that were obtained by the last 3 stimulations in each applied concentration was made to be the evaluated data. By using the current inhibition rate for the pre-applied current at each concentration of each test compound, IC50 value was calculated by Hill equation with the software.

[8] = [3H] dopamine, read-out: D4 binding affinity (Ki value)

T1 sequence (P08908 whole entry): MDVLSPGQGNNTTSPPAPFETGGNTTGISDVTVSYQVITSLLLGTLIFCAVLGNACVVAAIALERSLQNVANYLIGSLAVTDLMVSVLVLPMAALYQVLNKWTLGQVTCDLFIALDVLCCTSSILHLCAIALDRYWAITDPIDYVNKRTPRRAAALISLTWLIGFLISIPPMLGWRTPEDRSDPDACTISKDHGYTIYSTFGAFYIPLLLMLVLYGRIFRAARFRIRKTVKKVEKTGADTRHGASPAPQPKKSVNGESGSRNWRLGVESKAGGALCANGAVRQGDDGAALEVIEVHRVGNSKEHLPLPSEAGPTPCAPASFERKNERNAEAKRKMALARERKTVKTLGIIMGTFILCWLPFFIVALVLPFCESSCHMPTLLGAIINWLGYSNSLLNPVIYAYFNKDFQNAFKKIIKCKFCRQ
human D2 receptor, sequence (P14416 whole entry): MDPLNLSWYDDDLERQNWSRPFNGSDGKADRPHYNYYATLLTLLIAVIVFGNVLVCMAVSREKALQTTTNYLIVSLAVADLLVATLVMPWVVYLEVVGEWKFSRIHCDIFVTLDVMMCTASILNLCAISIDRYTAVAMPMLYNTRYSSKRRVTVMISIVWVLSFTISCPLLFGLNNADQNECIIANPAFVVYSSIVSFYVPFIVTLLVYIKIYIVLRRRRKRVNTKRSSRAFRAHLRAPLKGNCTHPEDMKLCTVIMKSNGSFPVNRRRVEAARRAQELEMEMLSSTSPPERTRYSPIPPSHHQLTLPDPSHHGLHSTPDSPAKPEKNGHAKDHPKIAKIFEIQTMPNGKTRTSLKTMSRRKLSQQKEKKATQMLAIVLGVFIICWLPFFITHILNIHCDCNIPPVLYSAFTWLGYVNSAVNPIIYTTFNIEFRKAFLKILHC
T3 sequence (Q12809 whole entry): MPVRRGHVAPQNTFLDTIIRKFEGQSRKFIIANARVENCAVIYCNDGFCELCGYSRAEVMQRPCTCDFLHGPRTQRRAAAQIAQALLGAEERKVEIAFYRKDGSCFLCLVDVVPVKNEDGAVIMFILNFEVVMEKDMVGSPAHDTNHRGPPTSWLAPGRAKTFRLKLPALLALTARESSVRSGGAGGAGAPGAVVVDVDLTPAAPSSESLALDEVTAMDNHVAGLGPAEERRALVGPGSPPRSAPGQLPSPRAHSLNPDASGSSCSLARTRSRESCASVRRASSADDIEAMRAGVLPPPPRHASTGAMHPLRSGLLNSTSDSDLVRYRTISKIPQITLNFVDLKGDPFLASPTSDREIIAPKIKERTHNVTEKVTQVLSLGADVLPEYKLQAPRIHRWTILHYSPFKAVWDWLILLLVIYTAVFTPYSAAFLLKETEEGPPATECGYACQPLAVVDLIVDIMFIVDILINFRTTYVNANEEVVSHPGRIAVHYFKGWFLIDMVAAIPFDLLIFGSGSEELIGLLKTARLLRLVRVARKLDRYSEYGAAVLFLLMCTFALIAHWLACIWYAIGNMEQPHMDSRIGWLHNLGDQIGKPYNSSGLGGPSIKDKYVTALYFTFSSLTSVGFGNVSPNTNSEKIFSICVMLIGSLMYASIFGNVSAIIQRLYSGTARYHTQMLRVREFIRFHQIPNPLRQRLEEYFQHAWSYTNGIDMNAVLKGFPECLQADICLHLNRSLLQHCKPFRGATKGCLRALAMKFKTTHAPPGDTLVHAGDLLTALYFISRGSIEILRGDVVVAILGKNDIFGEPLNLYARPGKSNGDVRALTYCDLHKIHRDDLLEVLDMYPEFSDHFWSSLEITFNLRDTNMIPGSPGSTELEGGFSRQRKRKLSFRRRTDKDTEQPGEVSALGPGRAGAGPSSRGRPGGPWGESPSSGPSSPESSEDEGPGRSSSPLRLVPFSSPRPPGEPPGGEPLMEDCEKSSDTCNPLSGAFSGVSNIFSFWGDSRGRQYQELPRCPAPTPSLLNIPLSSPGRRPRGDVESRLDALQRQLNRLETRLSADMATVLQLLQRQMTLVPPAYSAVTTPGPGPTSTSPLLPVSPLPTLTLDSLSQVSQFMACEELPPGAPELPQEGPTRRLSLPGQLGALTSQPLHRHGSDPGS
T2 sequence (P21917 whole entry): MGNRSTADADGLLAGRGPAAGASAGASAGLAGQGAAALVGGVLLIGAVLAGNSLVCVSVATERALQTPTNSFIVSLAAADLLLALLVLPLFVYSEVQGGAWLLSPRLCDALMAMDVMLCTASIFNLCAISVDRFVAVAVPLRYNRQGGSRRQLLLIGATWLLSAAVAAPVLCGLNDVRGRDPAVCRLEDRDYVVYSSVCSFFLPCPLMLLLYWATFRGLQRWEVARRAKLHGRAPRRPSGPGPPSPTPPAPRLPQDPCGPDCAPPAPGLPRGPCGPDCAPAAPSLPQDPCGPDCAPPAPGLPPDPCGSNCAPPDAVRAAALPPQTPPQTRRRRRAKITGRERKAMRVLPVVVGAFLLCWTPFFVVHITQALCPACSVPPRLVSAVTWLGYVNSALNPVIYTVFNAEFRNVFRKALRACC

| SMILES | 5-HT1A agonistic activity Emax (human 5-HT1A receptor [2]) [%] | Ki (human D4 receptor [3]; [8]) [nM] | D4 agonistic activity Emax (human D4 receptor [4]) [%] | Ki (human 5-HT1A receptor [1]) [nM] | EC50 (human 5-HT1A receptor [2]) [nM] | EC50 (human D4 receptor [4]) [nM] | Ki (human D2 receptor) [nM] | IC50 (hERG channel [5]) [nM] | Metabolic stability of human liver microsome [6] [mL/min/mg protein] | Emax (human 5-HT1A receptor [2]) [%] | Ki (human D4 receptor [3]) [nM] | IC50 (hERG channel [7]) [nM] | Emax (human D4 receptor [4]) [%] |
| --- | --- | --- | --- | --- | --- | --- | --- | --- | --- | --- | --- | --- | --- |
| Cc1cccc(C2CCN(CCNC(=O)C3CCC(F)(F)CC3)CC2)n1 [Example 4] | 90 | 26 | 71 | 0.4 | < 10 | 25.1 | > 10000 | 4000 | <0.01 | – | – | – | – |
| O=C(NCCN1CCC(c2cccc(C(F)(F)F)n2)CC1)C1CCCOC1 (stereo not drawn) [Example 2] | 86 | 109 | 61 | 11 | 323 | 58.9 | > 10000 | > 10000 | 0.069 | – | – | – | – |
| O=C(NCCN1CC=C(c2cccc(C(F)(F)F)n2)CC1)C1CCCOC1 (stereo not drawn) [Example 16, N-{2-[6-(Trifluoromethyl)-3′,6′-dihydro[2,4′-bipyridin]-1′ (2′H)-yl]ethyl}-tetrahydro-2H-pyran-3-carboxamide] | – | – | – | 6 | 43 | 31 | 1690 | – | <0.05 | 36 | 27 | > 10000 | 51 |
| COCC(C)(C)C(=O)NCCN1CC=C(c2cccc(C(F)(F)F)n2)CC1 [Example 18] | – | – | – | 21 | 68 | 37 | 2210 | – | <0.05 | 43 | 19 | > 10000 | 61 |

Second part, led by results:

| 5-HT1A agonistic activity Emax (human 5-HT1A receptor [2]) [%] | Ki (human D4 receptor [3]; [8]) [nM] | D4 agonistic activity Emax (human D4 receptor [4]) [%] | SMILES | Ki (human 5-HT1A receptor [1]) [nM] | EC50 (human 5-HT1A receptor [2]) [nM] | EC50 (human D4 receptor [4]) [nM] | Ki (human D2 receptor) [nM] | IC50 (hERG channel [5]) [nM] | Metabolic stability of human liver microsome [6] [mL/min/mg protein] | Emax (human 5-HT1A receptor [2]) [%] | Ki (human D4 receptor [3]) [nM] | IC50 (hERG channel [7]) [nM] | Emax (human D4 receptor [4]) [%] |
| --- | --- | --- | --- | --- | --- | --- | --- | --- | --- | --- | --- | --- | --- |
| 106 | 43 | 58 | COCC1(C(=O)NCCN2CCC(c3cccc(C(F)(F)F)n3)CC2)CC1 [Example 7] | 13 | < 10 | < 10 | > 10000 | 5600 | 0.017 | – | – | – | – |
| – | 10 | – | CN(C)c1cccc(C2CCN(CCNC(=O)C3CCOCC3)CC2)n1 [Example 38, N-(2-{4-[6-(Dimethylamino)pyridin-2-yl]piperidin-1-yl}ethyl)-tetrahydro-2H-pyran-4-carboxamide] | 37 | 86 | 42 | > 10000 | – | <0.05 | 50 | – | > 10000 | 35 |
